Source: article PMC5084761, “Crisaborole Topical Ointment, 2% in Patients Ages 2 to 17 Years with Atopic Dermatitis: A Phase 1b, Open‐Label, Maximal‐Use Systemic Exposure Study” (Pediatric Dermatology, 2016)
Where two headings read alike, the source gives them in different places. One block for each compound: values may come before it.

Key:
[1] = in vivo
Text: (§1) This was a phase 1b, multicenter, open‐label, maximal‐use study of crisaborole topical ointment, 2% applied twice daily (BID). The study included a PK and safety phase (dose application in clinic from day 1 through the morning dose on day 9) and a non‐PK safety phase (at‐home dose application from the evening dose on day 9 through day 28). […] The primary objective was to evaluate the systemic exposure, PK, and safety of crisaborole topical ointment, 2% when applied under maximal‐use conditions in children and adolescents 2 to 17 years of age.
(§2) Crisaborole topical ointment, 2% was applied BID to all treatable AD‐affected areas at an intended dose of 3 mg/cm^2. The per‐application dosage was calculated in grams at baseline for each patient based on total body surface area (BSA) and treatable percentage of BSA (percentage of AD‐involved skin excluding scalp and venous access areas). During the PK phase, the per‐application dosage remained fixed at the baseline level and was applied BID, with the evening application occurring 8 to 12 hours after the morning application.
(§3) The primary study endpoints were PK and safety of crisaborole topical ointment, 2% under maximal‐use conditions. PK profiles were developed for crisaborole and its major oxidative metabolites AN7602 and AN8323 based on plasma samples obtained on days 1 and 8. Calculated PK parameters included area under the curve (AUC), maximum plasma concentration (C max), time to C max (T max), and terminal half‐life (t 1/2), assessed on days 1 and 8.
(§4) Plasma PK samples were evaluated for crisaborole, AN7602, and AN8323 using a validated high‐performance liquid chromatography tandem mass spectrometry assay and analyzed using analysis of variance (ANOVA). Descriptive PK parameters were determined using standard noncompartmental methods based on concentration‐versus‐time curves for each patient.
(§5) If no statistically significant differences were observed using this model, the PK analysis was performed for all study patients.

[2] = Plasma pharmacokinetics after topical application of crisaborole topical ointment, 2% BID under maximal-use conditions (HPLC tandem mass spectrometry, noncompartmental); details: for Cmax: 3 mg/cm^2, C max
Text: as §1, §2, §3, §4, §5

[3] = test system: children and adolescents with mild to moderate AD; experiment: Efficacy: ISGA, treatment success, AD signs and symptoms, treatable percentage of BSA; type: in vivo, human (patients ages 2 to 17 years); details: for Percentage change from baseline in treatable percentage of BSA, mean ± SD: after 4 wks
Method: Secondary assessments included treatment success, defined as an Investigator Static Global Assessment (ISGA) score of 1 or less (clear or almost clear) with a two‐grade improvement or more from baseline. The proportion of patients achieving an ISGA of 0 (clear) or 1 (almost clear) was also assessed. Improvement from baseline in AD signs and symptoms of erythema, excoriation, exudation, lichenification, and pruritus was evaluated using a 4‐point scale ranging from 0 (none) to 3 (severe). Efficacy assessments were conducted at baseline and days 5, 8, 15, 22, and 29. Change from baseline in treatable percentage of BSA was assessed at day 29 and included all AD lesions identified at baseline.

- systemic exposure (in words) [1]: minimal
SMILES: N#Cc1ccc(Oc2ccc(O)c(CO)c2)cc1 [AN7602]

- Tmax ([2]; human, plasma, topical, 3 mg/cm^2): 3 h
- AUC(0-t) ([2]; human, plasma, topical, 3 mg/cm^2, AUC0–12, mean ± SD, plasma, day 1, all patients (n = 32)): 759 ± 730 ng·h/mL
- AUC(0-t) ([2]; human, plasma, topical, 3 mg/cm^2, AUC0–12, mean ± SD, plasma, day 8, all patients (n = 32)): 949 ± 1240 ng·h/mL
- AUC(0-t) ([2]; human, plasma, topical, 3 mg/cm^2, AUC0–24, mean ± SD, plasma, day 1, all patients (n = 29)): 833 ± 694 ng·h/mL
- AUC(0-t) ([2]; human, plasma, topical, 3 mg/cm^2, AUC0–24, mean ± SD, plasma, day 8, all patients (n = 32)): 1320 ± 1330 ng·h/mL
- AUC(0-t) ([2]; human, plasma, topical, 3 mg/cm^2, AUC0–T, mean ± SD, plasma, day 1, all patients (n = 34)): 863 ± 759 ng·h/mL
- AUC(0-t) ([2]; human, plasma, topical, 3 mg/cm^2, AUC0–T, mean ± SD, plasma, day 8, all patients (n = 33)): 1320 ± 1310 ng·h/mL
- Cmax ([2]; human, plasma, topical, mean ± SD, plasma, day 1, all patients (n = 34)): 111 ± 113 ng/mL
- Cmax ([2]; human, plasma, topical, mean ± SD, plasma, day 8, all patients (n = 33)): 127 ± 196 ng/mL
- systemic exposure (in words) ([2]; maximal-use conditions, increased with treatable percentage of BSA): minimal
- systemic accumulation in plasma (in words) ([2]; over 8 days of dosing): minimal systemic accumulation
- time by which steady state was reached ([2]; plasma, BID dosing): ≤ 8 days
- T max, median (range) ([2]; plasma, day 1, all patients (n = 34), ointment 2% at 3 mg/cm^2): 3.00 (3–12) hours
SMILES: N#Cc1ccc(Oc2ccc3c(c2)COB3O)cc1 [Crisaborole, crisaborole]
- Percentage change from baseline in treatable percentage of BSA, mean ± SD ([3]; cohort 1): −86.6 ± 18.6 percentage
- Percentage change from baseline in treatable percentage of BSA, mean ± SD ([3]; cohort 2): −72.8 ± 24.4 percentage
- Percentage change from baseline in treatable percentage of BSA, mean ± SD ([3]; cohort 3): −73.0 ± 21.7 percentage
- Percentage change from baseline in treatable percentage of BSA, mean ± SD ([3]; total (N = 34)): −77.7 ± 22.1 percentage
- Day 29 treatable percentage of BSA, mean ± SD (range) ([3]; cohort 1, ages 12–17 yrs (n = 12), baseline 35.8 ± 11.3): 5.7 ± 8.6 (0–29) percentage of BSA
- Day 29 treatable percentage of BSA, mean ± SD (range) ([3]; cohort 2, ages 6–11 yrs (n = 12), baseline 54.9 ± 19.3): 16.3 ± 14.5 (0–40) percentage of BSA
- Day 29 treatable percentage of BSA, mean ± SD (range) ([3]; cohort 3, ages 2–5 yrs (n = 10), baseline 56.9 ± 23.0): 18.6 ± 18.1 (0–46) percentage of BSA
- reduction of the mean percentage of skin with AD lesions ([3]; overall, as summarised in discussion): ~ 75%
- Day 29 treatable percentage of BSA, mean ± SD (range) ([3]; total (N = 34), baseline 48.7 ± 20.2): 13.2 ± 14.7 (0–46) percentage of BSA
